Assay results published in patent US8772480B2, “Inhibitors of PI3 kinase and/or mTOR” (priority 2009, dated 2014).
Read-outs that look alike come from different tables or passages of the source.

How the values were obtained:
[1] = system: phosphorylation of Akt at Serine 473 in U87 MG cells; experiment: cells; conditions: Homo sapiens, U-87 MG, 2 h
[2] = target: PI3Kα (Homo sapiens (Human), UniProt P42336); conditions: read-out: PI3Kα AlphaScreen ® Ki
[3] = read-out: U87Cell IC50, pAkt (Ser 473), U87 MG cells, two hours with compound

Sequence of PI3Kα (P42336 whole entry): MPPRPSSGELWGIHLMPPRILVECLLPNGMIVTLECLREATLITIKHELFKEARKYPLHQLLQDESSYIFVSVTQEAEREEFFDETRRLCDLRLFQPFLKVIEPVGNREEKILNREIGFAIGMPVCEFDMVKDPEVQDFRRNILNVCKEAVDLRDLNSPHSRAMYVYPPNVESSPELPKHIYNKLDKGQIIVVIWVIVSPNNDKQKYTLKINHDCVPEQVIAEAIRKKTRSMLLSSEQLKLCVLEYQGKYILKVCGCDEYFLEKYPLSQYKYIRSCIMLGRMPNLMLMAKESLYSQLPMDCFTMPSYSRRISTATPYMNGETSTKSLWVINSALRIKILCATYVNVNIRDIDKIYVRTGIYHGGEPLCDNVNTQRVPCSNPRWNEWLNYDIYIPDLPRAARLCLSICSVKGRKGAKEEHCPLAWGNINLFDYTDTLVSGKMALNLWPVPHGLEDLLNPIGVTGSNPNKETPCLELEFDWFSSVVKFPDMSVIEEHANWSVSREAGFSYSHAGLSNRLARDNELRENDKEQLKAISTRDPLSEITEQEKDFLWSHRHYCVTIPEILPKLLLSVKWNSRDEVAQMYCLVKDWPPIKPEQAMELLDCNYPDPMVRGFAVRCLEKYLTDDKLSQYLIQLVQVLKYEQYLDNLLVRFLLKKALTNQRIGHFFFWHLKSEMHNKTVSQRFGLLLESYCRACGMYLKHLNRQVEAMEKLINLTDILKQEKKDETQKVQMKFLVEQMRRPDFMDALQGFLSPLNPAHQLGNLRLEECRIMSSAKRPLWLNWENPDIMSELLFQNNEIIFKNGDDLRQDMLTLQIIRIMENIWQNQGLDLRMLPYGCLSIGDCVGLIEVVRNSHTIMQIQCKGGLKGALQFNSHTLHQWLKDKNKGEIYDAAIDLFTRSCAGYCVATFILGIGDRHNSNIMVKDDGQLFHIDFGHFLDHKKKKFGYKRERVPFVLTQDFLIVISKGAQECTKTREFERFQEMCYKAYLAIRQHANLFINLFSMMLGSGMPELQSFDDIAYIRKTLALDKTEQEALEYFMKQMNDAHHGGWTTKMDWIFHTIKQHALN
Sequence of PI3Kα (P27986 whole entry partner): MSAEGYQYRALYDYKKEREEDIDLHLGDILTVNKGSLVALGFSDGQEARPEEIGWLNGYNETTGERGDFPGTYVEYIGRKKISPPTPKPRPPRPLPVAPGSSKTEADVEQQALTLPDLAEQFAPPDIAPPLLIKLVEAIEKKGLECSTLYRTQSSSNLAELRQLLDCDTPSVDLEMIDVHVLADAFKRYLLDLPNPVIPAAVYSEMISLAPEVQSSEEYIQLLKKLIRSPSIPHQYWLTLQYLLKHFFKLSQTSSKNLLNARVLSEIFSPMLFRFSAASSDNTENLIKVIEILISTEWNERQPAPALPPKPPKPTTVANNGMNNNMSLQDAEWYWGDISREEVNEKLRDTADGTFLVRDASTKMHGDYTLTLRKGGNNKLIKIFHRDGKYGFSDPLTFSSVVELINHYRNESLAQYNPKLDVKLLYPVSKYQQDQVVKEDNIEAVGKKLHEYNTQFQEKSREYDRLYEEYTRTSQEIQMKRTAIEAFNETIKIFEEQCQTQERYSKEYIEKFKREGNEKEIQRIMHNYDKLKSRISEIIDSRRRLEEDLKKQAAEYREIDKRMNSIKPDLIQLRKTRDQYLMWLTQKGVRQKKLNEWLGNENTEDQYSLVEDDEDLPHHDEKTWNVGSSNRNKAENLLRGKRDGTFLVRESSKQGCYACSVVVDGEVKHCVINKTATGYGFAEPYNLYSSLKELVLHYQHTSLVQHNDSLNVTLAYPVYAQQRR

| Compound | IC50 [1, 3] [nM] | Ki [2] [nM] | IC50 ([1]; read-out: U87Cell IC50) [nM] |
| --- | --- | --- | --- |
| COc1ncc(Nc2ncc(C(C)N3CCN(S(C)(=O)=O)CC3)nc2-c2cc(N)nc(C)n2)cc1F (centres unmarked) [Example 283, 6-(3-(5-Fluoro-6-Methoxypyridin-3-Ylamino)-6-(1-(4-(Methylsulfonyl)Piperazin-1-yl)Ethyl)Pyrazin-2-yl)-2-Methylpyrimidin-4-Amine] | 4 | 3 | – |
| COc1ccc(Nc2ncc(OC(F)F)cc2-c2nc(C)nc(N)n2)cn1 [Example 262, 4-(5-(Difluoromethoxy)-2-(6-Methoxypyridin-3-Ylamino)Pyridin-3-yl)-6-Methyl-1,3,5-Triazin-2-Amine] | 180 | 47 | – |
| COc1ncc(Nc2nc(COCC(F)(F)F)ccc2-c2nc(C)nc(N)n2)cc1F [Example 199, 4-(2-(5-Fluoro-6-Methoxypyridin-3-Ylamino)-6-((2,2,2-Trifluoroethoxy)Methyl)Pyridin-3-yl)-6-Methyl-1,3,5-Triazin-2-Amine] | 227 | 68 | – |
| Cc1ccc(-c2nc(C)nc(N)n2)c(Nc2cncc(F)c2)n1 [Example 200, 4-(2-(5-Fluoropyridin-3-Ylamino)-6-Methylpyridin-3-yl)-6-Methyl-1,3,5-Triazin-2-Amine] | > 10000 | 180 | – |
| COc1ccc(Nc2ncc(Nc3ccccc3)cc2-c2nc(C)nc3[nH]cnc23)cn1 [Example 92, N2-(6-methoxypyridin-3-yl)-3-(2-methyl-9H-purin-6-yl)-N-5-phenylpyridine-2,5-diamine] | 916 | 33 | – |
| CC(=O)Nc1ccc(Nc2ncc(Cl)cc2-c2nc(C)nc(N)n2)cc1F [Example 266, N-(4-(3-(4-Amino-6-Methyl-1,3,5-Triazin-2-yl)-5-Chloropyridin-2-Ylamino)-2-Fluorophenyl)Acetamide] | 1100 | 155 | – |
| COc1ccc(Nc2ncc(NCc3ccccc3)cc2-c2nc(C)nc3[nH]cnc23)cn1 [Example 91, N5-benzyl-N2-(6-methoxypyridin-3-yl)-3-(2-methyl-9H-purin-6-yl)pyridine-2,5-diamine] | 378 | 57 | – |
| COc1ccc(Nc2ncc(CNCCO)cc2-c2nc(C)nc(N)n2)cn1 [Example 225, 2-((5-(4-Amino-6-Methyl-1,3,5-Triazin-2-yl)-6-(6-Methoxypyridin-3-Ylamino)Pyridin-3-yl)Methylamino)Ethanol] | 275 | 135 | – |
| Cc1nc(N)nc(-c2cc(CN3CCN(S(C)(=O)=O)CC3)cnc2Nc2ccc3[nH]cnc3c2)n1 [Example 260, N-(3-(4-Amino-6-Methyl-1,3,5-Triazin-2-yl)-5-((4-(Methylsulfonyl)Piperazin-1-yl)Methyl)Pyridin-2-yl)-1H-Benzo[D]Imidazol-5-Amine] | 1030 | 16 | – |
| COc1ccc(Nc2ncc(C(C)N3CCN(S(C)(=O)=O)CC3)cc2-c2nc(C)nc3[nH]cnc23)cn1 (centres unmarked) [Example 140, N-(6-methoxypyridin-3-yl)-3-(2-methyl-9H-purin-6-yl)-5-(1-(4-(methylsulfonyl)piperazin-1-yl)ethyl)pyridin-2-amine] | 34 | 6 | – |
| Cc1nc(N)nc(-c2cc(C(C)N3CCN(S(C)(=O)=O)CC3)cnc2Nc2ccc3scnc3c2)n1 (centres unmarked) [Example 290, N-(3-(4-Amino-6-Methyl-1,3,5-Triazin-2-yl)-5-(1-(4-(Methylsulfonyl)Piperazin-1-yl)Ethyl)Pyridin-2-yl)Benzo[D]Thiazol-5-Amine] | 45 | 24 | – |
| COc1ccc(Nc2ncc(CN3CC(NS(C)(=O)=O)C3)cc2-c2nc(C)nc(N)n2)cn1 [Example 232, N-(1-((5-(4-Amino-6-Methyl-1,3,5-Triazin-2-yl)-6-(6-Methoxypyridin-3-Ylamino)Pyridin-3-yl)Methyl)Azetidin-3-yl)Methanesulfonamide] | 78 | 39 | – |
| Cc1nc(N)nc(-c2cc(C(C)N3CCOCC3)cnc2Nc2ccc3scnc3c2)n1 (centres unmarked) [Example 288, N-(3-(4-Amino-6-Methyl-1,3,5-Triazin-2-yl)-5-(1-Morpholinoethyl)Pyridin-2-yl)Benzo[D]Thiazol-5-Amine] | 33 | 45 | – |
| COc1ncc(Nc2ncc(C3(O)CC3)cc2-c2nc(C)nc(N)n2)cc1F [Example 298, 1-(5-(4-Amino-6-Methyl-1,3,5-Triazin-2-yl)-6-(5-Fluoro-6-Methoxypyridin-3-Ylamino)Pyridin-3-yl)Cyclopropanol] | 23 | 4 | – |
| Cc1nc(N)nc(-c2cc(Cl)cnc2Nc2cncc(F)c2)n1 [Example 257, 4-(5-Chloro-2-(5-Fluoropyridin-3-Ylamino)Pyridin-3-yl)-6-Methyl-1,3,5-Triazin-2-Amine] | > 10000 | 426 | – |
| COc1ccc(Nc2ncc(-c3cncc(F)c3)cc2-c2nc(C)nc(N)n2)cn1 [Example 253, 5-(4-Amino-6-Methyl-1,3,5-Triazin-2-yl)-5′-Fluoro-N-(6-Methoxypyridin-3-yl)-3,3′-Bipyridin-6-Amine] | 280 | 12 | – |
| Cc1nc(N)nc(-c2cc(CN3CCN(S(C)(=O)=O)CC3)cnc2Nc2cccc3[nH]ncc23)n1 [Example 36, N-(3-(4-amino-6-methyl-1,3,5-triazin-2-yl)-5-((4-(methylsulfonyl)piperazin-1-yl)methyl)pyridin-2-yl)-1H-indazol-4-amine] | 22 | 4 | – |
| COCCOc1ccc(NC(=O)Nc2ccc(Nc3ncc(Cl)cc3-c3nc(C)nc(N)n3)cn2)cc1 [Example 195, 1-(5-(3-(4-Amino-6-Methyl-1,3,5-Triazin-2-yl)-5-Chloropyridin-2-Ylamino)Pyridin-2-yl)-3-(4-(2-Methoxyethoxy)Phenyl)Urea] | > 10000 | 16 | – |
| Cc1nc(N)nc(-c2cc(F)cnc2Nc2cncc(F)c2)n1 [Example 186, 4-(5-Fluoro-2-(5-Fluoropyridin-3-Ylamino)Pyridin-3-yl)-6-Methyl-1,3,5-Triazin-2-Amine] | > 10000 | 851 | – |
| Cc1nc(-c2cnccc2Nc2cccc3[nH]ncc23)c2nc[nH]c2n1 [Example 110, N-(3-(2-methyl-9H-purin-6-yl)pyridin-4-yl)-1H-indazol-4-amine] | 2420 | 264 | – |
| COc1ccc(Nc2ncc(C(C)N3CC(S(C)(=O)=O)C3)cc2-c2nc(C)nc(N)n2)cn1 (centres unmarked) [Example 308, 4-(2-(6-methoxypyridin-3-ylamino)-5-(1-(3-(methylsulfonyl)azetidin-1-yl)ethyl)pyridin-3-yl)-6-methyl-1,3,5-triazin-2-amine 2,2,2-trifluoroacetate] | – | 19 | 60 |
| COc1ccc(Nc2ncc(C3=CCNCC3)cc2-c2nc(C)nc(N)n2)cn1 [Example 249, 4-(2-(6-Methoxypyridin-3-Ylamino)-5-(1,2,3,6-Tetrahydropyridin-4-yl)Pyridin-3-yl)-6-Methyl-1,3,5-Triazin-2-Amine] | – | 21 | 88 |

More lines, main results first:

| IC50 [1, 3] [nM] | Ki [2] [nM] | Compound | IC50 ([1]; read-out: U87Cell IC50) [nM] |
| --- | --- | --- | --- |
| 146 | 69 | COc1ncc(Nc2ncc(C(C)N)cc2-c2nc(C)nc(N)n2)cc1F (centres unmarked) [Example 327, 4-(5-(1-Aminoethyl)-2-(5-Fluoro-6-Methoxypyridin-3-Ylamino)Pyridin-3-yl)-6-Methyl-1,3,5-Triazin-2-Amine] | – |
| 17 | 74 | COc1ncc(Nc2ncc(C3(N)CC3)cc2-c2nc(C)nc(N)n2)cc1F [Example 300, 4-(5-(1-Aminocyclopropyl)-2-(5-Fluoro-6-Methoxypyridin-3-Ylamino)Pyridin-3-yl)-6-Methyl-1,3,5-Triazin-2-Amine] | – |
| 46 | 5 | Cc1nc(-c2cccnc2Nc2cnc(Cl)c(NS(C)(=O)=O)c2)c2nc[nH]c2n1 [Example 338, N-(2-Chloro-5-(3-(2-Methyl-9H-Purin-6-yl)Pyridin-2-Ylamino)Pyridin-3-yl)Methanesulfonamide] | – |
| 1 | 2 | COc1ncc(Nc2ncc([C@@H](C)N3CCN(S(C)(=O)=O)CC3)cc2-c2cc(N)nc(C)n2)cc1F [Example 305, 6-(2-((5-fluoro-6-methoxy-3-pyridinyl)amino)-5-((1R)-1-(4-(methylsulfonyl)-1-piperazinyl)ethyl)-3-pyridinyl)-2-methyl-4-pyrimidinamine] | – |
| > 10000 | 7 | COc1ncc(Nc2ncc(CN3CCN(S(C)(=O)=O)CC3C(F)(F)F)cc2-c2nc(C)nc(N)n2)cc1F (centres unmarked) [Example 313, 4-(2-(5-Fluoro-6-Methoxypyridin-3-Ylamino)-5-((4-(Methylsulfonyl)-2-(Trifluoromethyl)Piperazin-1-yl)Methyl)Pyridin-3-yl)-6-Methyl-1,3,5-Triazin-2-Amine] | – |
| 21 | 98 | COc1ncc(Nc2ncc(CN3CCOCC3)cc2-c2nc(C)nc(N)n2)cc1NS(C)(=O)=O [Example 337, N-(5-(3-(4-Amino-6-Methyl-1,3,5-Triazin-2-yl)-5-(Morpholinomethyl)Pyridin-2-Ylamino)-2-Methoxypyridin-3-yl)Methanesulfonamide] | – |
| 14 | 4 | Cc1nc(-c2cc(C(C)N3CCOCC3)cnc2Nc2cnc(Cl)c(NS(=O)(=O)N(C)C)c2)c2nc[nH]c2n1 (centres unmarked) [Example 340, N′-(2-Chloro-5-((3-(2-Methyl-9H-Purin-6-yl)-5-(1-(4-Morpholinyl)Ethyl)-2-Pyridinyl)Amino)-3-Pyridinyl)-N,N-Dimethylsulfamide] | – |
| 364 | 279 | Cc1nc(N)nc(-c2cccnc2Nc2cnc(C)c(NS(C)(=O)=O)c2)n1 [Example 377, N-(5-(3-(4-Amino-6-Methyl-1,3,5-Triazin-2-yl)Pyridin-2-Ylamino)-2-Methylpyridin-3-yl)Methanesulfonamide] | – |
| 80 | 34 | COc1ccc(Nc2ncc(C(N3CCN(S(C)(=O)=O)CC3)C(F)(F)F)cc2-c2nc(C)nc(N)n2)cn1 (centres unmarked) [Example 321, 4-(2-(6-Methoxypyridin-3-Ylamino)-5-(2,2,2-Trifluoro-1-(4-(Methylsulfonyl)Piperazin-1-yl)Ethyl)Pyridin-3-yl)-6-Methyl-1,3,5-Triazin-2-Amine] | – |
